Measured values from paper PMC10882696, “Novel 5-Substituted Oxindole Derivatives as Bruton’s Tyrosine Kinase Inhibitors: Design, Synthesis, Docking, Molecular Dynamics Simulation, and Biological Evaluation” (ACS Omega, 2024).
Entries after “also recorded” stand apart in the source; their conditions may differ.

Assays:
p-p38 (Thr180/Tyr182) = assay: Western blot of p-p38 in LPS-stimulated RAMOS cells; format: cell-based, human; settings: RAMOS cells stimulated with LPS 10 min, then 50 μM for 3 h
Procedure: (§1) RAMOS cells were plated at 0.5 × 10^6/mL density in six-well plates. After 24 h, cells were treated with compounds at concentrations of 1, 10, and 50 μM for 24 h. The concentration of the vehicle was 0.5% in the highest test drug concentration (50 μM). LPS stimulation of RAMOS cells followed by drug treatment was performed as described previously.[19] […]
(§2) Primary antibodies used were purchased from Cell Signaling Technology, Inc., Massachusetts, USA, and included BTK (1:1000; Cat. # 3533S), phosphor-BTK (Tyr223) (1:1000; Cat # 5082S), p44/42 MAPK (ERK1/2) (1:1000; Cat # 9102S), phospho-p44/42 MAPK (ERK1/2) (Thr202/Tyr204) (1:1000; Cat # 4376S), p38 MAPK (1:1000; Cat # 9212S), phospho-p38 MAPK (Thr180/Tyr182) (1:1000; Cat # 9211S), Lyn (C13F9) (1:1000: Cat # 2796), phospho-Lyn (Tyr507) (1:1000; Cat #2731), Syk (1:1000; Cat # 2712), phospho-Syk (Tyr525/526) (C87C1) (1:1000; Cat # 2710), and GAPDH (1:4000; Cat. # 2118). […] Band intensities were quantified using NIH ImageJ Software (NIH, Bethesda, Maryland, USA).

[1] = Liver microsomal stability; format: in vitro ADME; settings: human liver microsomes, intrinsic clearance category
Procedure: (§3) Selected compounds were assayed for human plasma and liver microsomal stability in vitro, PAMPA and cellular permeability models of gastrointestinal resorption, and the blood–brain barrier using Caco-2 and MDR1-MCDK cells as previously described.[38] Samples were analyzed in an Agilent RapidFire 300 High-Throughput Mass Spectrometry System (RF-MS; Agilent, Wakefield, MA) with subsequent detection in a Qtrap 5500 mass spectrometer (AB Sciex, Concord, Canada).

pBTK (Tyr223) [2] = assay: Western blot of pBTK in LPS-stimulated RAMOS cells; format: cell-based, human; settings: RAMOS cells stimulated with LPS 10 min, then 50 μM for 3 h
Procedure: as §1, §2

[3] = Parallel artificial membrane permeability assay (PAMPA); format: in vitro ADME; settings: passive diffusion
Procedure: as §3

Plasma stability = format: in vitro ADME; settings: human plasma, in vitro
Procedure: as §3

MRC-5 = assay: 3 day MTS cytotoxicity assay, MRC-5; format: cell-based; settings: Homo sapiens, MRC5; MRC-5, non-cancer fibroblasts; mean ± SD, n ≥ 6
Procedure: (§4) The cytotoxic activity of all the 10 compounds was tested under in vitro conditions using a 3 day standard 3-(4,5-dimethylthiazol-2yl)-5-(3-carboxymethoxyphenyl)-2-(4-sulfophenyl)-2H-tetrazolium reduction assay in 384-well plates on a robotic high-throughput screening platform (HighResBio, Boston, MA) as described elsewhere.[38] The IC50 values were calculated from the respective dose–response curves of compounds with Dotmatics (San Diego, CA, USA).

JURKAT = assay: 3 day MTS cytotoxicity assay, JURKAT; format: cell-based; settings: Homo sapiens, ITK-positive, mean ± SD, n ≥ 6
Procedure: as §4

HCT116p53^–/– = assay: 3 day MTS cytotoxicity assay, HCT116p53-/-; format: cell-based; settings: ITK/BTK-negative, mean ± SD, n ≥ 6
Procedure: as §4

HCT116 = assay: 3 day MTS cytotoxicity assay, HCT116; format: cell-based; settings: Homo sapiens, HCT-116; HCT116, ITK/BTK-negative; mean ± SD, n ≥ 6
Procedure: as §4

A549 = assay: 3 day MTS cytotoxicity assay, A549; format: cell-based; settings: Homo sapiens; A549, ITK/BTK-negative; mean ± SD, n ≥ 6
Procedure: as §4

Plasma protein binding = format: in vitro ADME; settings: in vitro, read-out: plasma protein binding (% bound) (converted)
CCRF-CEM = assay: 3 day MTS cytotoxicity assay, CCRF-CEM; format: cell-based; settings: Homo sapiens, ITK-positive, mean ± SD, n ≥ 6
Procedure: as §4

Caco-2 cells = assay: Caco-2 permeability (gastrointestinal resorption model); format: in vitro ADME; settings: for active efflux: Caco-2; for Caco-2 category: Caco-2 permeability
Procedure: as §3

[4] = as above; format: in vitro ADME; settings: human, Caco-2
Procedure: as §3

BJ = assay: 3 day MTS cytotoxicity assay, BJ; format: cell-based; settings: Homo sapiens, non-cancer fibroblasts, mean ± SD, n ≥ 6
Procedure: as §4

U2OS = assay: 3 day MTS cytotoxicity assay, U2OS; format: cell-based; settings: Homo sapiens, ITK/BTK-negative, mean ± SD, n ≥ 6
Procedure: as §4

MDR1-MDCK cells = assay: MDR1-MDCK permeability (blood–brain barrier model); format: in vitro ADME
Procedure: as §3

MDR1 = assay: MDR1-MDCK permeability (blood–brain barrier model); format: in vitro ADME; settings: dog
Procedure: as §3

[5] = MDR1-MDCK permeability (blood–brain barrier model); format: in vitro ADME; settings: dog
Procedure: as §3

RAMOS = assay: 3 day MTS cytotoxicity assay, RAMOS; format: cell-based, human; settings: for activity in RAMOS cells: BTK-high; for IC50: Homo sapiens, Ramos, BTK-positive, mean ± SD, n ≥ 6
Procedure: as §4

Lyn phosphorylation = assay: Western blot of Lyn phosphorylation in RAMOS cells; format: cell-based, human; settings: 24 h
Procedure: as §1, §2

K562 = assay: 3 day MTS cytotoxicity assay, K562; format: cell-based; settings: Homo sapiens; K562, BTK-positive; mean ± SD, n ≥ 6
Procedure: as §4

pBTK (Tyr223) [6] = assay: Western blot of BTK phosphorylation in RAMOS cells; format: cell-based, human
Procedure: as §1, §2

Syk phosphorylation = assay: Western blot of Syk phosphorylation in RAMOS cells; format: cell-based, human; settings: 24 h
Procedure: as §1, §2

pERK 1/2 (Thr202/Tyr204) = assay: Western blot of pERK1/2 in LPS-stimulated RAMOS cells; format: cell-based, human; settings: RAMOS cells stimulated with LPS 10 min, then 50 μM for 3 h
Procedure: as §1, §2

PAMPA category [3] | plasma stability (category) (Plasma stability) | fraction unbound (Plasma protein binding) | active efflux (Caco-2 cells) | Papp [4] [×10⁻⁶ cm/s] | efflux ratio [4] | recovery [4] [%] | MDR1-MDCK CNS (−ive/+ive) (MDR1-MDCK cells) | Compound | p-p38 (Thr180/Tyr182) levels (p-p38 (Thr180/Tyr182)) | microsomal stability (clearance) [1] | pBTK (Tyr223) activation (pBTK (Tyr223) [2]) | IC50 (MRC-5) [µM] | IC50 (JURKAT) [µM] | IC50 (HCT116p53^–/–) [µM] | IC50 (HCT116) [µM] | IC50 (A549) [µM] | IC50 (CCRF-CEM) [µM] | Caco-2 category (Caco-2 cells) | IC50 (BJ) [µM] | IC50 (U2OS) [µM] | other results
low | stable | 0.114 | active efflux: yes | 3.18 | 2.69 | 45.4 | CNS –ive | O=C1Nc2ccc(S(=O)(=O)N3CCN(C(=O)C4CCCCC4)CC3)cc2C1=C1CCCC1 [9b, 5-((4-(Cyclohexanecarbonyl)piperazin-1-yl)sulfonyl)-3-cyclopentylideneindolin-2-one] | only evidenced on p-p38 (Thr180/Tyr182) levels | metabolized quickly by microsomes and high | no significant effect | > 50 | > 50 | > 50 | > 50 | > 50 | 35.5 ± 7.05 | low permeability and low | > 50 | > 50 | active efflux (MDR1-MDCK cells): active efflux: yes; Papp (MDR1): 2.92 ×10⁻⁶ cm/s; efflux ratio (MDR1): 9.3; recovery [5]: 60.2%; activity in RAMOS cells (RAMOS): selective cytotoxicity; also recorded: showed activity; also recorded: good anticancer activity in the micromole range; IC50 (RAMOS): 3.04 ± 0.56 µM; Lyn phosphorylation (Lyn phosphorylation): significantly inhibited; IC50 (K562): > 50 µM
medium | stable | 0.0334 | active efflux: yes | 7.18 | 3.34 | 63.2 | CNS –ive | CCCCC(=O)N1CCN(S(=O)(=O)c2ccc3c(c2)C(=C2CCCC2)C(=O)N3)CC1 [9h, 3-Cyclopentylidene-5-((4-pentanoylpiperazin-1-yl)sulfonyl)indolin-2-one] | decrease | medium | significantly inhibited | > 50 | > 50 | > 50 | > 50 | > 50 | 46.1 ± 3.13 | medium permeability; also recorded: moderate | > 50 | > 50 | pBTK (Tyr223) levels (pBTK (Tyr223) [6]; 24 h, 50 μM): decrease was significant; pBTK (Tyr223) levels (pBTK (Tyr223) [6]; 24 h, 1, 10, and 50 μM): selective inhibition of pBTK (Tyr223); Syk phosphorylation (Syk phosphorylation): without affecting; also recorded: did not affect; active efflux (MDR1-MDCK cells): active efflux: yes; Papp (MDR1): 5.43 ×10⁻⁶ cm/s; efflux ratio (MDR1): 13.1; recovery [5]: 86.9%; activity in RAMOS cells (RAMOS): selective cytotoxicity; also recorded: showed activity; also recorded: good anticancer activity in the micromole range; IC50 (RAMOS): 2.75 ± 0.8 µM; pERK 1/2 (Thr202/Tyr204) levels (pERK 1/2 (Thr202/Tyr204)): decrease; Lyn phosphorylation (Lyn phosphorylation): without affecting; also recorded: did not affect; IC50 (K562): > 50 µM
